Data reported in patent publication US20080194585A1, “Fungicidal Pyrazine Derivatives” (priority 2005, published 2008).
Marks after values point to notes of the source that are not given here.

Columns and labels:
Conditions in all cases: 100 = 100% disease control, 0 = no control
[1] = system: Plasmopara viticola; assay: Test D: grape downy mildew, spray after inoculation of grape seedlings; type: in vivo
Source text: Upon removal, disease ratings were made. […] A dash (-) indicates no test results.

[2] = system: Phytophthora infestans; assay: whole plant or invertebrate; type: in vivo
[3] = system: Septoria tritici; assay: Test J: wheat leaf blotch, preventive spray on wheat seedlings; type: in vivo
Source text: A dash (-) indicates no test results.

[4] = system: fusarium graminearium; assay: Test I: wheat head scab, preventive spray on wheat seedlings
Experimental: (the causal agent of wheat head scab) and incubated in a saturated atmosphere at 20° C. for 72 h, and then moved to a growth chamber at 22° C. for 5 days, after which disease ratings were made.

[5] = system: Puccinia recondita f. sp. tritici; assay: Test K: wheat leaf rust, preventive spray on wheat seedlings
[6] = system: Botrytis cinerea; assay: Test E: tomato botrytis, preventive spray on tomato seedlings
[7] = system: Septoria nodorum; assay: Test H: wheat glum blotch, preventive spray on wheat seedlings
Experimental: (the causal agent of wheat glum blotch) and incubated in a saturated atmosphere at 20° C. for 48 h, and then moved to a growth chamber at 22° C. for 5 days, after which disease ratings were made.

[8] = system: Erysiphe graminis f. sp. tritici; assay: Test L: wheat powdery mildew, preventive spray on wheat seedlings
[9] = system: Sclerotinia sclerotiorum; assay: Test C: cucumber white mold, preventive spray on cucumber seedlings
[10] = system: Pythium aphanidermatum; assay: Test A: bluegrass pythium blight, preventive spray on bluegrass seedlings
[11] = system: Rhizoctonia oryzae; assay: Test G: turf brown patch, preventive spray on creeping bent grass seedlings
Experimental: (the causal agent of turf brown patch) and incubated in a saturated atmosphere at 27° C. for 24 h, and then moved to a growth chamber at 27° C. for 5 days, after which disease ratings were made.

[12] = system: Colletotrichum orbiculare; assay: Test B: cucumber Colletotrichum anthracnose, preventive spray on cucumber seedlings

Structure (SMILES) | Test D disease control rating ([1]; 40 ppm (marked *)) | Test F disease control rating ([2]; 40 ppm (marked *)) | Test J disease control rating ([3]; 40 ppm (marked *)) | Test I disease control rating ([4]; 40 ppm (marked *)) | Test K disease control rating ([5]; 40 ppm (marked *)) | Test E disease control rating ([6]; 40 ppm (marked *)) | Test H disease control rating ([7]; 40 ppm (marked *)) | Test L disease control rating ([8]; 40 ppm (marked *)) | Test C disease control rating ([9]; 40 ppm (marked *)) | Test A disease control rating ([10]; 40 ppm (marked *)) | Test G disease control rating ([11]; 40 ppm (marked *)) | Test B disease control rating ([12]; 40 ppm (marked *)) | also measured
Cc1ccn(-c2nc(Cl)c(-c3cc4c(cc3Cl)OCO4)n(CC(C)C)c2=O)n1 [compound 257] | – | – | – | – | – | – | – | – | – | – | – | – | Test D disease control rating ([1]; 200 ppm): 0%; Test F disease control rating ([2]; 200 ppm): 0%; Test J disease control rating ([3]; 200 ppm): 71%; Test I disease control rating ([4]; 200 ppm): 0%; Test K disease control rating ([5]; 200 ppm): 74%; Test E disease control rating ([6]; 200 ppm): 99%; Test H disease control rating ([7]; 200 ppm): 0%; Test L disease control rating ([8]; 200 ppm): 0%; Test C disease control rating ([9]; 200 ppm): 0%; Test A disease control rating ([10]; 200 ppm): 81%; Test G disease control rating ([11]; 200 ppm): 0%; Test B disease control rating ([12]; 200 ppm): 0%
Cc1cc(C)c(-c2c(Cl)nc(-n3ccc(C)n3)c(=O)n2CC(C)C)c(C)c1 [compound 258] | 0* % | 0* % | 82* % | 0* % | 41* % | 59* % | 0* % | 0* % | 49* % | 0* % | 0* % | 0* % | –
CCCCn1c(-c2ccc(F)cc2Cl)c(Cl)nc(-n2ccc(C)n2)c1=O [compound 265] | 0* % | 0* % | 100* % | 0* % | 94* % | 100* % | 95* % | 91* % | 0* % | 0* % | 50* % | 90* % | –
CCCCn1c(-c2ccc(F)cc2Cl)c(Cl)nc(-n2cccn2)c1=O [compound 266] | 0* % | 0* % | 100* % | 0* % | 99* % | 100* % | 99* % | 99* % | 0* % | 0* % | 90* % | 99* % | –
CCCCn1c(-c2ccc(F)cc2Cl)c(Cl)nc(N2CCC=N2)c1=O [compound 267] | 0* % | 0* % | 60* % | 0* % | 68* % | 100* % | 0* % | 0* % | 0* % | 0* % | 0* % | 0* % | –
O=c1c(-n2cccn2)nc(Cl)c(-c2c(F)cccc2F)n1CCO [compound 268] | 0* % | 0* % | 7* % | 0* % | 82* % | 0* % | 0* % | 0* % | 0* % | 0* % | 0* % | 0* % | –
O=c1c(-n2cccn2)nc(Cl)c(-c2c(F)cccc2F)n1CCF [compound 269] | 0* % | 0* % | 99* % | 0* % | 91* % | 0* % | 100* % | 0* % | 0* % | 0* % | 0* % | 0* % | –
O=c1c(-n2cccn2)nc(Cl)c(-c2c(F)cccc2F)n1CCBr [compound 270] | 24* % | 0* % | 95* % | 0* % | 94* % | 85* % | 0* % | 0* % | 0* % | 0* % | 0* % | 0* % | –
O=c1c(-n2cccn2)nc(Cl)c(-c2c(F)cccc2F)n1Cc1ccc(F)cc1 [compound 272] | 57* % | 0* % | 100* % | 0* % | 100* % | 100* % | 99* % | 100* % | 44* % | 0* % | 59* % | 95* % | –
O=c1c(-n2cncn2)nc(Cl)c(-c2c(F)cccc2F)n1Cc1ccc(F)cc1 [compound 273] | 0* % | 0* % | 92* % | 0* % | 86* % | 99* % | 0* % | 0* % | 0* % | 0* % | 0* % | 0* % | –
N#Cc1nc(Cl)c(-c2c(F)cccc2F)n(Cc2ccc(F)cc2)c1=O [compound 274] | 0* % | 0* % | 45* % | 0* % | 91* % | 0* % | 0* % | 71* % | 0* % | 0* % | 0* % | 0* % | –
O=c1c(-n2cccn2)nc(Cl)c(-c2c(F)cccc2F)n1Cc1cccc(Cl)c1 [compound 275] | 0* % | 0* % | 100* % | 0* % | 97* % | 100* % | 99* % | 61* % | 0* % | 0* % | 0* % | 47* % | –
O=c1c(-n2cncn2)nc(Cl)c(-c2c(F)cccc2F)n1Cc1cccc(Cl)c1 [compound 276] | 0* % | 0* % | 100* % | 0* % | 94* % | 98* % | 78* % | 0* % | 0* % | 0* % | 0* % | 0* % | –
N#Cc1nc(Cl)c(-c2c(F)cccc2F)n(Cc2cccc(Cl)c2)c1=O [compound 277] | 0* % | 0* % | 63* % | 0* % | 41* % | 0* % | 0* % | 0* % | 0* % | 0* % | 0* % | 0* % | –
Cc1ccn(-c2nc(Cl)c(-c3c(F)cccc3F)n(-c3ccccc3)c2=O)n1 [compound 278] | 31* % | 0* % | 100* % | 0* % | 100* % | 100* % | 100* % | 99* % | 0* % | 0* % | 92* % | 88* % | –
Cc1ccn(-c2nc(Cl)c(-c3c(F)cccc3F)n(Cc3ccccc3)c2=O)n1 [compound 279] | 0* % | 0* % | 100* % | 0* % | 100* % | 99* % | 98* % | 99* % | 0* % | 0* % | 41* % | 78* % | –
